The source of these data is ChEMBL document CHEMBL5233265, “Recent advances in the design and development of formyl peptide receptor 2 (FPR2/ALX) agonists as pro-resolving agents with diverse therapeutic potential” (Eur J Med Chem, 2021).

Test [1] deals with T1, N-formyl peptide receptor 2 (Homo sapiens, UniProt P25090).
T1 sequence (P25090 whole entry): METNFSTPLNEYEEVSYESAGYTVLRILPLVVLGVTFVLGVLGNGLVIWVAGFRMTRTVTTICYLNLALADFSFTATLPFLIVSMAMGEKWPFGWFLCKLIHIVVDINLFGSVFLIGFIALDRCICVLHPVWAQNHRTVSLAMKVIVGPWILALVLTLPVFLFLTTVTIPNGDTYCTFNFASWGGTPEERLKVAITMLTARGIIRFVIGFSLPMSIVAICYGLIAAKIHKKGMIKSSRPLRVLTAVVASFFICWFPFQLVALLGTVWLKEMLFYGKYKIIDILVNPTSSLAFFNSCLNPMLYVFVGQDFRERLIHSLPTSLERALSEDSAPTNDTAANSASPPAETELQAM
Briefly: Agonist activity at human recombinant FPR2 stably transfected in Flp-In-CHO cells assessed as increase in intracellular calcium mobilization incubated for 1 hr by Fluo-4 AM dye based fluorescence plate reader assay. It is filed as cell-based.

Test [2] has as its target T2, fMet-Leu-Phe receptor (Homo sapiens) (UniProt P21462).
T2 sequence (whole entry): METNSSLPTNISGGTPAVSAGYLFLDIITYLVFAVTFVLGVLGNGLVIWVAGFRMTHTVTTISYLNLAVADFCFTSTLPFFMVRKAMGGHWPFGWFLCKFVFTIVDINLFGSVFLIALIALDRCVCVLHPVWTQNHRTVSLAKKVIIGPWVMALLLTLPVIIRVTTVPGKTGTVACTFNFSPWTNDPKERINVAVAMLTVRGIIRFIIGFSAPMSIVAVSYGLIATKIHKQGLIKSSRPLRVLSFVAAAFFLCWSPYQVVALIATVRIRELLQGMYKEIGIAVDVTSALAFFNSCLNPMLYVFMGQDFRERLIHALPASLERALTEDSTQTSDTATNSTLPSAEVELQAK
Briefly: Agonist activity at human recombinant FPR1 stably transfected in Flp-In-CHO cells assessed as maximal intracellular calcium mobilization at 10 uM incubated for 1 hr by Fluo-4 AM dye based fluorescence plate reader assay relative to control. The test is classed as cell-based. For orientation: Calcium assays in cells follow changes in intracellular calcium, usually with a dye or a luminescent sensor.

The target in test [3] is T1, N-formyl peptide receptor 2. Briefly: Agonist activity at human recombinant FPR2 stably transfected in Flp-In-CHO cells assessed as ERK1/2 phosphorylation incubated for 1 hr by Alphascreen fluorescence assay. It is filed as cell-based.
Test [4] concerns the target T3, N-formyl peptide receptor 2 (Homo sapiens) (UniProt P25090).
T3 sequence (whole entry): T1 sequence (P25090 whole entry)
Briefly: Agonist activity at human recombinant FPR2 stably transfected in Flp-In-CHO cells assessed as ERK1/2 phosphorylation at 10 uM incubated for 1 hr by Alphascreen fluorescence assay relative to control. The test is classed as cell-based. On the technique in general: Alpha assays give light when donor and acceptor beads are brought close together.

The target in test [5] is T3, N-formyl peptide receptor 2 (Homo sapiens). Put plainly: Agonist activity at human recombinant FPR2 stably transfected in Flp-In-CHO cells assessed as maximal intracellular calcium mobilization at 10 uM incubated for 1 hr by Fluo-4 AM dye based fluorescence plate reader assay relative to control. It is filed as cell-based.
In test [6] the target is T2, fMet-Leu-Phe receptor (Homo sapiens). Put plainly: Agonist activity at human recombinant FPR1 stably transfected in Flp-In-CHO cells assessed as ERK1/2 phosphorylation at 10 uM incubated for 1 hr by Alphascreen fluorescence assay relative to control. The test is classed as cell-based. The note with it: filed as agonist.
Test [7] concerns the target T4, fMet-Leu-Phe receptor (Homo sapiens, UniProt P21462).
T4 sequence (P21462 whole entry): T2 sequence (whole entry)
Put plainly: Agonist activity at human recombinant FPR1 stably transfected in Flp-In-CHO cells assessed as ERK1/2 phosphorylation incubated for 1 hr by Alphascreen fluorescence assay. The test is classed as cell-based.

Test [8] deals with T4, fMet-Leu-Phe receptor. Put plainly: Agonist activity at human recombinant FPR1 stably transfected in Flp-In-CHO cells assessed as increase in intracellular calcium mobilization incubated for 1 hr by Fluo-4 AM dye based fluorescence plate reader assay. It is filed as cell-based.
The target in test [9] is T1, N-formyl peptide receptor 2. Briefly: Agonist activity at human FPR2 transfected in HL-60 cells assessed as increase in intracellular calcium flux incubated for 30 mins by Fluo-4 AM dye based fluorometer analysis. It is filed as cell-based. The note with it: read-out: EC50.
Test [10] addresses T4, fMet-Leu-Phe receptor. Put plainly: Agonist activity at human FPR1 transfected in HL-60 cells assessed as increase in intracellular calcium flux incubated for 30 mins by Fluo-4 AM dye based fluorometer analysis. The test is classed as cell-based.
Test [11] addresses T3, N-formyl peptide receptor 2 (Homo sapiens). Put plainly: Agonist activity at human FPR2 transfected in HL-60 cells assessed as maximal intracellular calcium flux incubated for 30 mins by Fluo-4 AM dye based fluorometer analysis relative to control. The test is classed as cell-based. The note with it: filed as agonist.
Test [12] addresses T2, fMet-Leu-Phe receptor (Homo sapiens). Put plainly: Agonist activity at human FPR1 transfected in HL-60 cells assessed as maximal intracellular calcium flux incubated for 30 mins by Fluo-4 AM dye based fluorometer analysis relative to control. It is filed as cell-based. The note with it: filed as agonist.
Test [13] has as its target T4, fMet-Leu-Phe receptor. Put plainly: Agonist activity at FPR1 (unknown origin) expressed in CHO/Galpha16 cells assessed as increase in calcium flux by FLIPR assay. It is filed as cell-based.
The target of test [14] is T1, N-formyl peptide receptor 2. Briefly: Agonist activity at FPR2 (unknown origin) expressed in CHO/Galpha16 cells assessed as increase in calcium flux by FLIPR assay. It is filed as cell-based.
Test [15] can be described thus: Agonist activity at FPR in human PMNL cells assessed as increase in intracellular calcium mobilization incubated for 30 mins by Fluo-4 AM dye based fluorometer analysis. The test is classed as cell-based. The note with it: 0.5 h.
For test [16], the target named is T1, N-formyl peptide receptor 2. Briefly: Agonist activity at human FPR2 expressed in HEK293 cells assessed as increase in calcium flux incubated for 45 mins by Fluo-4 AM dye based fluorescence assay. The test is classed as cell-based.
Test [17] concerns Mus musculus. Put plainly: Anti-inflammatory activity against BALB/c mouse assessed as suppression ratio of LPS-induced neutrophil infiltration in lung at 3 mg/kg,po measured after 5.5 hrs by Diff-Quick staining based microscopic analysis. The test is classed as functional.
Test [18] has as its target T3, N-formyl peptide receptor 2 (Homo sapiens). Put plainly: Agonist activity at human FPR2 transfected in HL-60 cells assessed as maximal intracellular calcium flux incubated for 30 mins by Fluo-4 AM dye based FLIPR-fluorometeric assay relative to control. The note with it: filed as agonist. The test is classed as cell-based.
Test [19] concerns the target T2, fMet-Leu-Phe receptor (Homo sapiens). Put plainly: Agonist activity at human FPR1 transfected in HL-60 cells assessed as maximal intracellular calcium flux incubated for 30 mins by Fluo-4 AM dye based FLIPR-fluorometeric assay relative to control. It is filed as cell-based. The note with it: filed as agonist.
Test [20] is described as follows: Agonist activity at FPR in human PMNL cells assessed as increase in intracellular calcium mobilization incubated for 30 mins by Fluo-4 AM dye based FLIPR-fluorometeric assay. The test is classed as cell-based. The note with it: 0.5 h.
For test [21], the system named is PMNL. Put plainly: Agonist activity at FPR in human PMNL cells assessed as maximal intracellular calcium mobilization incubated for 30 mins by Fluo-4 AM dye based FLIPR-fluorometeric assay relative to control. It is filed as cell-based. The note with it: filed as agonist.
The target in test [22] is T1, N-formyl peptide receptor 2. Put plainly: Agonist activity at human FPR2 transfected in HL-60 cells assessed as increase in intracellular calcium flux incubated for 30 mins by Fluo-4 AM dye based FLIPR-fluorometeric assay. It is filed as cell-based. The note with it: hl-60.
In test [23] the target is T4, fMet-Leu-Phe receptor. Briefly: Agonist activity at human FPR1 transfected in HL-60 cells assessed as increase in intracellular calcium flux incubated for 30 mins by Fluo-4 AM dye based FLIPR-fluorometeric assay. The note with it: read-out: EC50. It is filed as cell-based.

Some results are limits rather than exact numbers.

As for `COc1cccc(Cc2cc(C)nn([C@H](C)C(=O)Nc3ccc(Cl)cc3)c2=O)c1`, the concentration giving a half-maximal response (EC50) (commonly the concentration at which the effect is half-maximal) in test [1] was over 10 µM; in test [3], 1260 nM; in test [7] it was 794 nM; in test [8], 3.98 µM. The maximal effect (Emax) (as a rule, the maximal effect, on the per cent scale that the assay sets) in test [2] was determined as 38%; in [4] (filed as agonist) it was 85%; in test [5], 8%; in test [6], 82%.
Regarding `COc1cccc(Cc2cc(C)nn([C@@H](C)C(=O)Nc3ccc(Cl)cc3)c2=O)c1`, the EC50 was over 10 µM in test [1], over 10000 nM in test [3], 1260 nM in [7] and over 10 µM in test [8]. Besides, the maximum response (Emax) is 16% in test [2], 8% in test [4], 4% in test [5] and 78% in test [6].
In the case of `COc1ccc(NC(=O)N[C@@H](Cc2ccc(O)cc2)C(=O)NCC2(c3ccccc3)CC2)cc1`, the results for the EC50 in test [9] and in test [10] (read-out: EC50) were 2900 nM and 1500 nM, respectively. For the same compound, the maximal effect (Emax) in [11] was determined as 130%; in test [12], 95%.
For the compound `COc1ccc(NC(=O)N[C@@H](Cc2ccc(C#N)cc2)C(=O)NCC2(c3cccc(O)c3)CC2)cc1`, the EC50 in test [9] is 180 nM; in [10] (read-out: EC50), 1400 nM. In test [11], the Emax was determined as 115%.
For the compound `CC(C)C(C(=O)O)C(C)NC(=O)Nc1ccc(Br)cc1` (stereo in doubt; 19), the concentration giving a half-maximal response (EC50) was 13 nM in test [13] and 3.24 µM in [14].
As for `COc1cccc(-c2cc(C#N)c(C)n(CC(=O)Nc3ccc(Br)cc3)c2=O)c1`, the concentration for a half-maximal effect (EC50) worked out at 120 nM in test [9], 1600 nM in test [10] (read-out: EC50) and 390 nM in test [15].
For the compound `COc1ccc(C[C@H](NC(=O)Nc2ccc(Cl)cc2)c2noc(CCO)n2)cc1`, in test [16], the half-maximal effective concentration (EC50) stood at 0.17 nM. Besides, in test [17], the Ratio worked out at 94%.
Take `COc1ccc(NC(=O)N[C@H](Cc2ccc(C#N)cc2)C(=O)NCC2(c3cccc(O)c3)CC2)cc1`: the 50% effective concentration (EC50) in [9] was 7000 nM; in test [10] (hl-60) it was “Not Active”. The Emax in test [11] came to 70%.
Turning to `N/C(=N\C(=O)CCO)[C@H](Cc1ccc(Cl)cc1)NC(=O)Nc1ccc(Cl)cc1`, the Ratio in test [17] was 86%.
With `O=C(Cn1c(=O)[nH]cc(-c2ccccc2)c1=O)Nc1ccc(Br)cc1`, the EC50 in [9] turned out to be 8900 nM; in [10] (read-out: EC50), 12500 nM; in test [15] it was 4500 nM.
As for `COc1cccc(Cc2c(C)c(C)nn(CC(=O)Nc3ccc(Br)cc3)c2=O)c1`, the maximum response (Emax) in [18] came to 80%; in test [19], 85%; in [21] it was 85%. For the same compound, in test [20], the EC50 turned out to be 19 nM.
Take `COc1ccc(Cc2c(C)c(C)nn(CC(=O)Nc3ccc(Br)cc3)c2=O)cc1`: the EC50 stood at 13 nM in test [22], 900 nM in test [23] and 270 nM in test [20]. The Emax in [18] amounted to 95%; in test [19], 60%; in test [21], 140%.
Consider `COc1cc(F)c([C@@H]2CNC(=O)[C@H]2NC(=O)Nc2ccc(C)cc2)c(F)c1`, for which the concentration giving a half-maximal response (EC50) in test [16] turned out to be 0.86 nM. For the same compound, the Ratio in [17] amounted to 57%.
